Experiments:
[1] = tested on: histamine-stimulated gastric acid output; test: Gastric Antisecretory Activity In The Heidenhain Pouch Dog; type: in vivo, female dogs
Protocol: Determination of Gastric Antisecretory Activity In The Heidenhain Pouch Dog
Prior to surgery, hematology and blood chemistry profiles are obtained and an assessment made as to the general health of selected female dogs. Dogs are vaccinated with Tissue Vax 5 (DHLP--Pitman-Moore) and housed in general animal quarters for four weeks' observation so incipient diseases may become apparent. Dogs are fasted with water ad libitum 24 hours prior to surgery.
Anesthesia is induced with Sodium Pentothal (Abbott) 25-30 mg/kg iv. Subsequent anesthesia is maintained with methoxyflurane (Pitman-Moore). A midline linea alba incision from xiphoid to umbilicus provides good exposure and ease of closure. The stomach is pulled up into the operative field, the greater curvature stretched out at multiple points and clamps placed along the selected line of incision. The pouch is made from the corpus of the stomach so that true parietal cell juice is obtained. About 30% of the corpus volume is resected. The cannula is made of light-weight,biologically-inert material such as nylon or Delrin with dimensions and attachments after DeVito and Harkins (J. Appl. Physiol., 14, 138 (1959). Post operatively, dogs are medicated with antibiotics and an analgesic. They are allowed 2-3 months for recovery. Experiments are carried out in the following way: Dogs are fasted overnight (≈18 hours) with water ad libitum prior to each experiment. The dogs are placed in a sling and a saphenous vein cannulated for drug administration. Histamine as the base (100 μg/kg/hr) and chlorpheniramine maleate (0.25 mg/kg/hr) are infused continuously (in a volume of 6 ml/hr) with a Harvard infusion pump.
Ninety minutes' infusion are allowed for the dogs to reach a steady state of acid output. At this time the drug or normal saline (control) is administered concomitantly with the secretagogue in a volume of 0.5 ml/kg over a 30 second period. When oral studies are to be carried out, the drug is administered via gastric gavage in a volume of 5 ml/kg. Infusion of the secretagogue is continued and 15 minute samples of the gastric juice are taken for 4.5 hours. Each sample is measured to the nearest 0.5 ml and titratable acidity is determined by titrating a 1 ml sample to pH 7.0 with 0.2N NaOH, using an Autoburet and an electrometric pH meter (Radiometer). Titratable acid output is calculated in microequivalents by multiplying the volume in milliliters by the acid concentration in milliequivalents per liter.
Results are expressed as percent inhibition relative to control readings and the response is the average for five dogs at that dose level.

histamine H2-receptor [2] = conditions: relative to burimamide or metiamide; cited from earlier work
gastric acid secretion = test: Gastric Antisecretory Activity in the Gastric Fistula Rat; type: in vivo, Male Long Evans rats; conditions: sc
Protocol: Determination of Gastric Antisecretory Activity in the Gastric Fistula Rat Male Long Evans rats weighing about 240-260 grams at the time of cannula implantation are used. […] The fistula components are designed and the operative procedure is carried out exactly as described in the above reference. Post operatively the animals are individually housed in solid bottom cages with sawdust and are allowed food and water ad libitum throughout the entire recovery period. Animals are not used for test purposes for at least 15 days after the operative procedure. The animals are fasted but allowed water ad libitum for 20 hours before the testing procedure is to begin. […] The catheter is then screwed into the cannula in place of the plugging screw and the rat is placed in a clear plastic rectangular cage measuring 40 cm long, 15 cm wide and 13 cm high. The bottom of the cage has a slit approximately 1.5 cm wide and 25 cm long running down the center to accommodate the catheter which hangs through it. […] Chem. Path. […] Titratable acid output is calculated in microequivalents by multiplying the volume in milliliters by the acid concentration in milliequivalents per liter. Results are expressed as percent inhibition relative to control readings. Dose response curves are constructed and ED50 values are calculated by regression analyses. […]

histamine H2-receptor [3] = conditions: man; cited from earlier work
[4] = cited from earlier work

Compound: CNC(=NC#N)NCCSCc1nc[nH]c1C [Cimetidine, reference compound]
- % Maximum Inhibition ([1]; Intravenous, dose 6.0 μmoles/kg, Heidenhain pouch dog): 94%
- % Maximum Inhibition ([1]; Oral, dose 12.0 μmoles/kg, Heidenhain pouch dog): 95%
- potency or effectiveness as histamine H2-antagonist, relative (histamine H2-receptor [2]): as effective an histamine H2 -antagonist as metiamide

Compound: Nc1cnc(NCCCOc2cccc(CN3CCCCC3)c2)[nH]c1=O [Example 2, 5-Amino-2-[3-(3-piperidinomethylphenoxy)propylamino]-4(3H)-pyrimidone]
- % Maximum Inhibition ([1]; Intravenous, single dose 0.094 μmoles/kg, 5 dogs): 90%
- Potency Ratio [cimetidine = 1.0] ([1]; Intravenous): 50
- % Maximum Inhibition ([1]; Oral, single dose 0.5 μmoles/kg, 5 dogs): 86%
- Potency Ratio [cimetidine = 1.0] ([1]; Oral): 20
- duration of antisecretory action relative to cimetidine ([1]; both the intravenous and oral dog models): prolonged duration of action relative to cimetidine
- ED50 (gastric acid secretion): 0.15 µmol/kg
- Potency Ratio [cimetidine = 1.0] (gastric acid secretion; cimetidine = 1.0): 26

Compound: CNC(=S)NCCSCc1nc[nH]c1C [Metiamide]
- potency or effectiveness as histamine H2-antagonist, relative (histamine H2-receptor [2]): more potent than burimamide
- oral activity (histamine H2-receptor [3]): orally active in man

Compound: CNC(=S)NCCCCc1cnc[nH]1 [Burimamide]
- oral absorption [4]: poor

— patent US4772704A, “2,5-disubstituted-4(3H)-pyrimidones having histamine H2 -receptor antagonist activity” (Bristol-Myers Company, priority 1983, dated 1988)
